According to publication PMC8228141, “Antiprotozoal Nor-Triterpene Alkaloids from Buxus sempervirens L” (Antibiotics, 2021):
Several values for one entry are separate records, joined by “and”; a condition that tells them apart may be missing. Identical values can stand only once. Like-named read-outs stand apart in the source and are kept apart here.

Columns and labels:
[1] = Cytotoxicity against mammalian control cells; format: cell-based, rat; details: rat
Procedure: (§1) After isolation, all alkaloids were tested in vitro for antiplasmodial and antitrypanosomal activity against Plasmodium falciparum (Pf) and Trypanosoma brucei rhodesiense (Tbr). Furthermore, to assess their selectivity against the parasites, cytotoxicity against L6 rat skeletal myoblasts, as mammalian control cells, was tested (Table 4).
(§2) In vitro assays for the bioactivity of the isolated Buxus-alkaloids against Tbr (bloodstream trypomastigotes, STIB 900 strain), Trypanosoma cruzi (Tc) (amastigotes, Tulahuen C4 strain), Leishmania donovani (Ldo) (amastigotes, MHOM-ET-67/L82 strain) and Pf (intraerythrocytic forms, NF54 strain), and cytotoxicity tests against mammalian cells (L6-cell line from rat-skeletal myoblasts), were performed at the Swiss Tropical and Public Health Institute (Swiss TPH, Basel, Switzerland) according to established standard protocols.

[2] = system: Plasmodium falciparum (Pf) (intraerythrocytic forms, NF54 strain); assay: In vitro antiplasmodial activity; format: cell-based; details: for SI Pf (selectivity index): cytotoxicity L6 vs Pf
Procedure: as §1, §2

[3] = system: Trypanosoma brucei rhodesiense (Tbr) (bloodstream trypomastigotes, STIB 900 strain); assay: In vitro antitrypanosomal activity; format: cell-based; details: for SI Tbr (selectivity index): cytotoxicity L6 vs Tbr
Procedure: as §1
as §2, with “protocols. […] Such a pattern of activity was also observed in other studies.” for “protocols.”

[4] = system: L6 rat skeletal myoblasts; assay: Cytotoxicity against mammalian control cells; format: cell-based; details: L6 cell line; for Cytotox. IC50: mean of n = 2 (fluctuation range) or * n = 3 (SD); for IC50: read-out: Cytotox. IC50 (in parentheses) (converted)
Procedure: as §1, §2

[5] = Plasmodium falciparum, NF54, NF54 strain, mean of n = 2 (fluctuation range) or * n = 3 (SD), read-out: Pf IC50
[6] = Plasmodium falciparum, NF54, NF54 strain, read-out: Pf IC50 (in parentheses) (converted)
[7] = Trypanosoma brucei, STIB 900 strain, mean of n = 2 (fluctuation range) or * n = 3 (SD), read-out: Tbr IC50
[8] = Trypanosoma brucei, STIB 900 strain, read-out: Tbr IC50 (in parentheses) (converted)
[9] = NF54 strain, mean of n = 2 (fluctuation range) or * n = 3 (SD)
[10] = NF54 strain, read-out: Pf IC50 (in parentheses) (converted)
[11] = STIB 900 strain, mean of n = 2 (fluctuation range) or * n = 3 (SD)
[12] = STIB 900 strain, read-out: Tbr IC50 (in parentheses) (converted)
[13] = L6 rat skeletal myoblast cells, L6 cell line, mean of n = 2 (fluctuation range) or * n = 3 (SD), read-out: Cytotox. IC50
[14] = L6 rat skeletal myoblast cells, L6 cell line, read-out: Cytotox. IC50 (in parentheses) (converted)

SMILES	IC50 [2, 5]	IC50 [2, 6]	IC50 [3, 7]	IC50 [3, 8]	Pf IC50 [2, 9]	IC50 [2, 10]	Tbr IC50 [3, 11]	IC50 [3, 12]	SI Pf (selectivity index) [2]	SI Tbr (selectivity index) [3]	Cytotox. IC50 [4]	IC50 [4]	other results
C=C1C2CC[C@@H]3[C@]4(CC[C@]5(C)[C@@H](C(C)=O)[C@H](O)C[C@@]35C)C[C@]24CC[C@@H]1NC (stereo partly shown) [Compound 17, Cyclomicrobuxinine]	4.1 ± 0.8 µg/mL	10.9 µM	48 ± 0.2 µg/mL	129 µM					7	0.6			IC50 [1]: 30.5 µg/mL and 82 µM
C=C1[C@@H](N(C)C)CC[C@]23C[C@]24CC[C@]2(C)[C@@H](C(C)=O)[C@H](O)C[C@@]2(C)[C@@H]4CC[C@@H]13 [Compound 18, Cyclomicrobuxine]					2.6 ± 0.005 µg/mL	6.8 µM	16.9 ± 2.3 µg/mL	44 µM			26.8 ± 8.8 µg/mL	69.6 µM	
CC(=O)O[C@@H]1C[C@@]2(C)[C@@H]3CC[C@@H]4C(=CC3=CC[C@]2(C)[C@H]1[C@H](C)NC(=O)c1ccccc1)CC[C@H](N(C)C)C4(C)C [Compound 22, N-benzoyl-O-acetylbuxodienine-E]							3.4 ± 1 µg/mL				8.5 ± 0.1 µg/mL	15.6 µM	
Nc1nc(N)nc(Nc2ccc([As]3SCC(CO)S3)cc2)n1 (stereo not shown) [Melarsoprol, reference compound]													IC50 ([3]; Trypanosoma brucei, read-out: Tbr IC50): 0.005 ± 0.001 µg/mL; IC50 ([3]; Trypanosoma brucei, read-out: Tbr IC50 (in parentheses)): 0.013 µM
COc1cc([C@@H]2c3cc4c(cc3[C@H](O)[C@H]3COC(=O)[C@H]23)OCO4)cc(OC)c1OC [Podophyllotoxin, reference compound]													IC50 ([1]; L6 cell line, mean of n = 2 (fluctuation range) or * n = 3 (SD), read-out: Cytotox. IC50): 0.006 ± 0.001 µg/mL

Now from value to molecule, other results behind:

IC50 [2, 5]	IC50 [2, 6]	IC50 [3, 7]	IC50 [3, 8]	Pf IC50 [2, 9]	IC50 [2, 10]	Tbr IC50 [3, 11]	IC50 [3, 12]	SMILES	SI Pf (selectivity index) [2]	SI Tbr (selectivity index) [3]	Cytotox. IC50 [4]	IC50 [4]	other results
				1.3 ± 0.35 µg/mL	3.8 µM	2.2 ± 0.07 µg/mL	6.4 µM	C[C@@H]([C@H]1CC[C@H]2[C@@H]3CC=C4C[C@@H](O)CC[C@]4(C)[C@H]3CC[C@]12C)N(C)C [Compound 19, Irehine]			13.4 ± 0.5 µg/mL	38.8 µM	
				1.6 ± 0.57 µg/mL	4 µM	5.26 ± 0.3 µg/mL	13.2 µM	CC(=O)[C@H]1[C@H](O)C[C@@]2(C)[C@@H]3CC[C@@H]4C(=CC3=CC[C@]12C)CC[C@H](N(C)C)C4(C)C [Compound 20, 16-α-hydroxybuxaminone]			45 ± 1 µg/mL	113 µM	
				3.1 ± 0.24 µg/mL	7.3 µM	53 ± 1 µg/mL	124 µM	CC(=O)N[C@@H](C)[C@H]1CC[C@@]2(C)[C@@H]3CC[C@@H]4C(=CC3=CC[C@]12C)CC[C@H](N(C)C)C4(C)C [Compound 21, N20-acetylbuxamine-E]			54.8 ± 1.1 µg/mL	129 µM	
4.2 ± 0.4 µg/mL	7.7 µM	3.1 ± 0.6 µg/mL	5.7 µM					CC(=O)O[C@@H]1C[C@@]2(C)[C@@H]3CC[C@@H]4C(=CC[C@H](N(C)C)C4(C)C)CC3=CC[C@]2(C)[C@H]1[C@H](C)NC(=O)c1ccccc1 [Compound 23, N-benzoyl-O-acetylbuxadine-E]	7	9			IC50 [1, 13]: 27.5 ± 16 µg/mL; IC50 [1, 14]: 50.4 µM
2.3 ± 0.27 µg/mL	5.6 µM	0.52 ± 0.27 µg/mL	1.3 µM					CN[C@H]1CC=C2CC3=CC[C@]4(C)[C@@H]([C@H](C)NC(C)=O)CC[C@@]4(C)[C@@H]3CC[C@H]2C1(C)C [Compound 24, N20-acetylbuxadine-G]	7	33			IC50 [1, 13]: 16.9 ± 1.1 µg/mL; IC50 [1, 14]: 41 µM
3.6 ± 0.05 µg/mL	9.3 µM	6.7 ± 0.49 µg/mL	17.3 µM					CN[C@H]1CC=C2CC3=CC[C@@]4(C)[C@@](C)(CC[C@]4(O)[C@H](C)O)[C@@H]3CC[C@H]2C1(C)C [Compound 25, 17,20-dihydroxybuxadine-M]	12	7			IC50 [1, 13]: 44.5 ± 5.5 µg/mL; IC50 [1, 14]: 115 µM
